Laboratory results taken from paper PMC9460261, “Need for a Standardized Translational Drug Development Platform: Lessons Learned from the Repurposing of Drugs for COVID-19” (Microorganisms, 2022).
Counter-ions that a name gives are not always drawn. Like-named read-outs stand apart in the source and are kept apart here.

Columns and labels:
[1] = test system: SARS-CoV-2; conditions: read-out: SARS-CoV-2 EC50, cited from earlier work
[2] = test system: SARS-CoV-2; assay type: in vivo, Syrian hamster; conditions: doses, frequency, duration as in Table 1
[3] = test system: SARS-CoV-2 in Vero cells; conditions: for IC50: * one replicate only
[4] = test system: SARS-CoV-2 in Calu-3 cells
[5] = test system: SARS-CoV-2 in Vero cells; assay: microbe, parasite or virus in culture; conditions: Severe acute respiratory syndrome coronavirus 2, Vero
[6] = test system: SARS-CoV-2 in Calu-3 cells; assay: microbe, parasite or virus in culture; conditions: Severe acute respiratory syndrome coronavirus 2, Calu-3, read-out: Calu-3 cells Average IC50
[7] = Binding to antiviral assay medium by Rapid Equilibrium Dialysis; conditions: 2% serum DMEM media; DNDi in-house data
[8] = Population PK model from satellite PK studies in hamster; conditions: hamster of the study's median weight (80-131 g)
[9] = in vitro; conditions: African green monkey, Selectivity Index (Vero cells)
[10] = Population PK model in human (digitized literature data)
[11] = female, LGV Golden Syrian, hamster, in vivo
[12] = read-out: VERO cells Average IC50, With Pgp pump inhibitor, 2 μM CP-100356, * one replicate only
[13] = read-out: VERO cells Average IC50, Without Pgp pump inhibitor, * one replicate only
[14] = read-out: VERO cells Average IC50, Without Pgp pump inhibitor
[15] = read-out: VERO cells Average IC50, With Pgp pump inhibitor, 2 μM CP-100356
[16] = human, modelled from digitized data, ref 68 (ambroxol), 71-73 (cepharanthine), 78 (fluvoxamine), 80 (molnupiravir)

Cc1c(-c2ccc(-c3ccccc3F)cc2)nc2ccc(F)cc2c1C(=O)O [Brequinar, brequinar]
EC50 ([1]; host cell A549-ACE): 0.05 µM | EC50 ([1]; host cell Caco-2): > 50 µM | EC50 ([1]; host cell Huh7.5): 0.5 µM | EC50 ([1]; host cell Vero E6, ref 51): 0.12 µM

CN(Cc1cc(Br)cc(Br)c1N)C1CCCCC1 [Bromhexine, bromhexine]
EC50 ([1]; host cell Vero E6, ref 47): 21.7 µM

CN(C)C(=O)COC(=O)Cc1ccc(OC(=O)c2ccc(NC(=N)N)cc2)cc1 [Camostat mesylate, camostat mesylate]
Activity in SARS-CoV-2 Hamster Model [2]: No | Activity In Vitro; Potency EC50 or IC50 < 10 µM; Vero Cells [3]: No (Potency EC50 or IC50 < 10 µM) | Activity In Vitro; Potency EC50 or IC50 < 10 µM; Calu-3 Cells [4]: Yes (Potency EC50 or IC50 < 10 µM) | EC50 ([1]; host cell Calu-3): 0.083 µM | IC50 [5, 12]: > 50 µM | IC50 [5, 13]: > 50 µM | IC50 [6]: 3 µM

COc1cc2c(c(OC)c1OC)-c1ccc(OC)c(=O)cc1[C@@H](NC(C)=O)CC2 [Colchicine, colchicine]
Activity In Vitro; Potency EC50 or IC50 < 10 µM; Vero Cells [3]: Yes (Potency EC50 or IC50 < 10 µM) | Activity In Vitro; Potency EC50 or IC50 < 10 µM; Calu-3 Cells [4]: Yes (Potency EC50 or IC50 < 10 µM) | IC50 ([5]; read-out: VERO cells Average IC50, With Pgp pump inhibitor): 3.7 µM | IC50 [5, 14]: 8.4 µM

O=c1nc(NO)ccn1[C@@H]1O[C@H](CO)[C@@H](O)[C@H]1O [EIDD-1931]
Selectivity Index (Vero cells), With Pgp pump inhibitor ([3]; T: toxicity observed): > 37 | Selectivity Index (Vero cells), Without Pgp pump inhibitor ([3]; T: toxicity observed): > 32 | IC50 [3, 15]: 1.3 µM | IC50 [3, 14]: 1.5 µM | IC50 ([4]; read-out: Calu-3 cells Average IC50, * one replicate only): 3.6 µM | Fraction unbound in assay medium [7]: 99.7%

C[C@@]1(F)[C@H](O)[C@@H](CO)O[C@H]1n1ccc(=O)[nH]c1=O [GS-331007]
CL/F, elimination clearance, population estimate (%RSE) [8]: 390 (17.4) mL/h | VC/F, central volume of distribution, population estimate (%RSE) [8]: 2750 (17.0) mL

OC(c1cc(C(F)(F)F)nc2c(C(F)(F)F)cccc12)C1CCCCN1 (centres unmarked) [Mefloquine, mefloquine]
Activity In Vitro; Potency EC50 or IC50 < 10 µM; Vero Cells [3]: Yes (Potency EC50 or IC50 < 10 µM) | Activity In Vitro; Potency EC50 or IC50 < 10 µM; Calu-3 Cells [4]: No (Potency EC50 or IC50 < 10 µM) | selectivity ratio ([9]; With Pgp pump inhibitor): 6.2 | selectivity ratio ([9]; Without Pgp pump inhibitor): 3.6 | IC50 [5, 12]: 2.8 µM | IC50 [5, 13]: 5.7 µM | IC50 [6]: 13.2 µM

CC(C)C(=O)OC[C@H]1O[C@@H](n2ccc(NO)nc2=O)[C@H](O)[C@@H]1O [Molnupiravir, molnupiravir]
Activity in SARS-CoV-2 Hamster Model [2]: Yes | Activity in SARS-CoV-2 Hamster Model ([2]; listed as molnupiravir): demonstrated in vivo efficacy | Dose effect on MTT (power) ([10]; covariate, human model): 0.127 (10.8%) | CL/F, population estimate (%RSE) [10, 16]: 80.9 (3.9%) L/h | VC/F, population estimate (%RSE) [10, 16]: 128 (5.7%) L | MTT, population estimate (%RSE) ([10]; human, modelled from digitized data, ref 68 (ambroxol), 78 (fluvoxamine), 80 (molnupiravir)): 1.0 (3.3%) h | Activity In Vitro; Potency EC50 or IC50 < 10 µM; Vero Cells ([3]; in the presence of a P-glycoprotein inhibitor (^Pgp)): Yes ^Pgp (Potency EC50 or IC50 < 10 µM) | IC50 [3, 15]: 2.6 µM | IC50 ([3]; read-out: VERO cells Average IC50, With Pgp pump inhibitor, 2 μM CP-100356, listed as molnupiravir): < 10 µM | Activity In Vitro; Potency EC50 or IC50 < 10 µM; Calu-3 Cells [4]: Yes (Potency EC50 or IC50 < 10 µM) | CL/F, elimination clearance, population estimate (%RSE) [11]: 1340 (7.6) mL/h | Dose effect on KA (exp) [11]: -0.00247 (23.7) | KA, absorption rate constant, population estimate (%RSE) [11]: 1.45 (7.5) h-1 | Q/F (Q1/F), inter-compartment clearance, population estimate (%RSE) [11]: 15.8 (23.1) mL/h | VC/F, central volume of distribution, population estimate (%RSE) [11]: 172 (21.6) mL | VP/F, peripheral volume of distribution, population estimate (%RSE) [11]: 75.3 (23.0) mL | EC50 ([1]; host cell Calu-3): 0.1 µM | selectivity ratio ([9]; With Pgp pump inhibitor, T: toxicity observed): > 19.4 | selectivity ratio ([9]; Without Pgp pump inhibitor, T: toxicity observed): > 1.9 | IC50 [5, 13]: 26 µM | IC50 [6]: 27.8 µM

CCNCc1cc(Nc2ccnc3cc(Cl)ccc23)ccc1O [N-desethylamodiaquine]
CL/F, elimination clearance, population estimate (%RSE) [11]: 804 (9.48%) mL/h | Q/F (Q1/F), inter-compartment clearance, population estimate (%RSE) [11]: 229 (27.6%) mL/h | VC/F, central volume of distribution, population estimate (%RSE) [11]: 1890 (42.2%) mL | VP/F, peripheral volume of distribution, population estimate (%RSE) [11]: 3050 (77.1%) mL
